Assays:
[1] = tested on: mice with intracerebral hemorrhage; assay: Rotorod vestibulomotor function after intracerebral hemorrhage (collagenase injection); assay type: in vivo, mouse; details: 0.05 mg/kg iv at 2 h and 6 h after intracerebral hemorrhage
Protocol: An experimental murine model for intracerebral hemorrhage was also provided. James, et al. (2009) Stroke, 40:632-39. Male mice (age 16-20 weeks) were anesthetized with 4.6% isoflurane in oxygen in an anesthesia induction box for 90 seconds. The trachea was intubated and the lungs mechanically ventilated with 1.6% isoflurane in a 70/30 mixture of nitrogen/oxygen. Body temperature was maintained at 37° C. using an underbody warming system. The animal's head was secured in a stereotactic frame, local anesthetic was injected, and the scalp incised. […]
An experimental procedure for measuring neurological deficits was developed. […] The average time to fall from the rotating cylinder in the latter three trials was recorded as baseline latency. […] Average latency to fall from the rod was recorded, and mice unable to grip the rod were scored with a latency of 0 seconds.
Groups of mice received either an ApoE mimetic peptide (SEQ ID NO:4; 0.05 mg/kg) or carrier (saline) by intravenous tail vein injection a 2 hours and again at 6 hours after intracerebral hemorrhage induced as described in Example 3. Each mouse was tested for vestibulomotor function by rotorod latency measured before and after induced intracerebral hemorrhage as described in Example 3.

[2] = VSRRR quantitation in mouse plasma by LC/SIM/MS after intravenous dosing; assay type: in vivo; details: IV single dose 0.8 mg/kg
Protocol: The amount of the ApoE mimetic peptide VSRRR (SEQ ID NO:4) in blood plasma and CNS was determined as follows:
VSRRR Quantitation in Mouse Plasma Using LC/Selected Ion Monitoring (SIM)/MS
48 μL aliquots of mouse plasma were measured into the wells of a 2 mL 96-well plate. 6 μL of a stable isotope labeled (SIL) form of the VSRRR peptide (“VSRRR[10]”; SEQ ID NO:4) (5 picomoles/μL in 50 mM ammonium bicarbonate, pH 8, buffer) was added. 6 μL of a synthetic form of the VSRRR peptide (“VSRRR”; SEQ ID NO:4) in 50 mM Ammonium bicarbonate was added for standards and quality controls (QCs) and an equivalent volume of 50 mM ammonium bicarbonate was added to all wells containing mouse PK samples. 1140 μL of 50 mM ammonium formate, pH 10, was added for a final volume of 1200 μL. Salts and proteins were removed using OASIS® HLB Solid Phase Extraction (SPE) protocol as follows: • 1. 500 μL methanol (MeOH) through each well×1. • 2. 500 μL 25% acetonitrile (ACN)/1% trifluoroacetic acid (TFA)×1 (as pre-elution). • 3. 500 μL MeOH×1 • 4. 500 μL 50 mM ammonium formate×2 • 5. 1 mL of each sample mixture was pipetted directly onto an OASIS® HLB plate (hydrophilic-lipophilic-balanced reversed-phase sorbent; Waters Corp.) into a corresponding well and slowly vacuumed through • 6. 500 μL 50 mM ammonium formate×1 • 7. 500 μL 10% ACN/50 mM ammonium formate×2 • 8. 500 μL 25% ACN/50 mM ammonium formate×1 • 9. Removed plate collecting washes/flowthrough, and put in collection plate • 10. Eluted with 100 μL 25% ACN/1% TFA×3, eluting with vacuum slowly. The final eluate should be approximately 300 μL.
The SPE eluate was dried using a vacuum centrifuge. The sample was reconstituted in 50 μL of buffer containing 1% acetonitrile (ACN), 0.1% trifluoroacetic acid (TFA), and 0.02% heptafluorobutyric acid (HFBA). Two microliters of reconstituted sample was analyzed by nanoscale capillary LC coupled to a high resolution, accurate mass tandem mass spectrometer. Specifically, the electrospray ionization source with NanoLockSpray™ (Waters Corp.) and nanoAcquity UPLC® system (Waters Corp.) were used with a nanoscale LC column (1.7 μm BEH130 C18 150 μm ID×100 mm long; Waters Corp.), 10-min gradient of 3% to 19% ACN with 0.1% formic acid (mobile phase A=0.1% formic acid/0.001% HFBA) with a total LC run time of 16.5 minutes, flow rate=1.8 μL/min and 35° C. column temperature. A SYNAPT™ G1 HDMS™ high resolution mass spectrometer (Waters Corp.) was used. Full Scan MS data was obtained over the mass region of 50-4000 Da using an Enhanced Duty Cycle scan function at 360 Da.
VSRRR and VSRRR[10] amounts were quantitated by measuring the area under the curve (AUC) of the Selected Ion Chromatograms of the doubly charged ions at high resolution (m/z 357.7 and 362.7). The final VSRRR quantitation amount was determined using the ratio of the AUCs (VSRRR/VSRRR[10]). The ratios from 5 animals were averaged per time point and calibration standards were used to generate a standard curve. Duplicate aliquots of QC samples were analyzed by LC/MS in triplicate to determine analytical reproducibility.
The lower level of quantitation (LLOQ) is indicated.

## Ac-VSRRR-NH2 [VR-55, Ac-VSRRR-NH2]
[1]
  durability of effect on rotorod latency: durable through the five-day testing period
[1]; FIG. 5
  vestibulomotor performance (rotorod latency) compared to carrier: improved vestibulomotor performance
[2]; 1 min
  Ratio Light/Heavy across 5 animals: 0.079
  amount of peptide in plasma: 32.2 fmol/µL
[2]; 3 min
  Ratio Light/Heavy across 5 animals: 0.134
  amount of peptide in plasma: 51.8 fmol/µL
[2]; 5 min
  Ratio Light/Heavy across 5 animals: 0.077
  amount of peptide in plasma: 31.7 fmol/µL
[2]; 10 min
  Ratio Light/Heavy across 5 animals: 0.058
  amount of peptide in plasma: 24.9 fmol/µL
[2]; 15 min
  Ratio Light/Heavy across 5 animals: 0.044
  amount of peptide in plasma: 19.6 fmol/µL
[2]; 30 min
  Ratio Light/Heavy across 5 animals: 0.016
  amount of peptide in plasma: 9.9 fmol/µL
[2]; 60 min
  Ratio Light/Heavy across 5 animals: 0.012
  amount of peptide in plasma: 8.5 fmol/µL
